ChEMBL document CHEMBL1157433, “Design and synthesis of 4-HPR derivatives for rhabdoid tumors” (Bioorg Med Chem Lett, 2008)
Activity calls are given as the source filed them. No cut-off for these calls is given here.

Test system: not listed separately
Test: (§1) Cytotoxicity against human MON cells after 3 days by MTS assay
Format: functional, cell-based
Details: Homo sapiens, MON, 72 h; read-out: IC50

Row | Structure (SMILES) | IC50
1 | CC1=C(/C=C/C(C)=C/C=C/C(C)=C/C(=O)Nc2ccc(CO)cc2)C(C)(C)CCC1 | 25 µM
2 | CC1=C(/C=C/C(C)=C/C=C/C(C)=C/C(=O)O)C(C)(C)CCC1 [TRETINOIN] | 100 µM
3 | CC1=C(/C=C/C(C)=C/C=C/C(C)=C/C(=O)Nc2ccc(O)c(Cl)c2)C(C)(C)CCC1 | 12.5 µM
4 | CC1=C(/C=C/C(C)=C/C=C/C(C)=C/C(=O)Nc2ccc(Br)cc2)C(C)(C)CCC1 | 150 µM
5 | CC1=C(/C=C/C(C)=C/C=C/C(C)=C/C(=O)Nc2ccc([N+](=O)[O-])cc2)C(C)(C)CCC1 | > 200 µM
6 | CC1=C(/C=C/C(C)=C/C=C/C(C)=C/C(=O)Nc2ccc(O)c(F)c2)C(C)(C)CCC1 | 8 µM
7 | CC1=C(/C=C/C(C)=C/C=C/C(C)=C/C(=O)Nc2ccc(O)c(I)c2)C(C)(C)CCC1 | 3 µM
8 | CC1=C(/C=C/C(C)=C/C=C/C(C)=C/C(=O)Nc2ccc(CCO)cc2)C(C)(C)CCC1 | > 50 µM
9 | CC1=C(/C=C/C(C)=C/C=C/C(C)=C/C(=O)Nc2ccc(F)cc2)C(C)(C)CCC1 | 150 µM
10 | CC1=C(/C=C/C(C)=C/C=C/C(C)=C/C(=O)Nc2ccc(Cl)cc2)C(C)(C)CCC1 | > 200 µM
11 | CC1=C(/C=C/C(C)=C/C=C/C(C)=C/C(=O)Nc2ccc(O)cc2O)C(C)(C)CCC1 | 8 µM

Same assay, conditions: mon

Row | Structure (SMILES) | IC50
12 | COc1ccc(NC(=O)/C=C(C)/C=C/C=C(C)/C=C/C2=C(C)CCCC2(C)C)cc1 | Not Active

Same assay, conditions: mon; read-out: IC50

Row | Structure (SMILES) | IC50
13 | CC1=C(/C=C/C(C)=C/C=C/C(C)=C/C(=O)Nc2ccc(O)cc2)C(C)(C)CCC1 (stereo in doubt) [FENRETINIDE] | 9 µM
14 | CC1=C(/C=C/C(C)=C/C=C/C(C)=C/C(=O)Nc2ccc(O)cc2)C(C)(C)CCC1 (stereo in doubt; 5g) [FENRETINIDE] | 19 µM

Test system: MON
Test: as §1
Format: functional, cell-based
Details: not given

Row | Structure (SMILES) | Activity
15 | CC1=C(/C=C/C(C)=C/C=C/C(C)=C/C(=O)Nc2ccc(I)cc2)C(C)(C)CCC1 | inactive
16 | CC1=C(/C=C/C(C)=C/C=C/C(C)=C/C(=O)Nc2ccc(O)c([N+](=O)[O-])c2)C(C)(C)CCC1 | inactive
